Laboratory results: BindingDB's records for doi:10.1111/cbdd.12205 (Srtm University, 2014)

Columns and labels:
[1] = target: Xanthine dehydrogenase/oxidase (Bos taurus, UniProt P80457); assay: Xanthine Oxidase Activity; conditions: pH 7.6; 25 °C
Protocol: The enzyme was preincubated with test compound, dissolved in DMSO (1% v/v), for 5 min and the reaction was initiated by the addition of xanthine.

[2] = target: Alpha-glucosidase MAL12 (Saccharomyces cerevisiae (strain ATCC 204508 / S288c), UniProt P53341); assay: Alpha-Glucosidase Assay
Alpha-glucosidase MAL12, sequence (P53341 whole entry): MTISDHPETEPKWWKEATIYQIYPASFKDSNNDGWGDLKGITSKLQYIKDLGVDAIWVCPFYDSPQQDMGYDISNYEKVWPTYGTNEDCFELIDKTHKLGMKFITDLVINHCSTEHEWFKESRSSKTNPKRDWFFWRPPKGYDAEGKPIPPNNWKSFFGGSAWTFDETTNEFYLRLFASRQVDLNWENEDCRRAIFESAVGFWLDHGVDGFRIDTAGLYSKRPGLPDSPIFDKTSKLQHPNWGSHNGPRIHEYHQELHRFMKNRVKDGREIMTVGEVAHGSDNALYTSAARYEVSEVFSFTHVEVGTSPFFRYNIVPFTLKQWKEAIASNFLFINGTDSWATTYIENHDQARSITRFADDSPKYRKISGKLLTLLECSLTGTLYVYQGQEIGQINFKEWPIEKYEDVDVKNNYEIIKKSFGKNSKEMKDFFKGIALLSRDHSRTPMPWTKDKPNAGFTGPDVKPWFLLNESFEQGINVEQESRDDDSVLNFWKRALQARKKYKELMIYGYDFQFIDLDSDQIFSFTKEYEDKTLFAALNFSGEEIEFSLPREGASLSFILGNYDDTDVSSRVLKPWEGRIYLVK
Protocol: The assay was performed using isolated phenolics from maize, and inhibition was determined according to previously described method.

Xanthine dehydrogenase/oxidase, sequence (P80457 whole entry): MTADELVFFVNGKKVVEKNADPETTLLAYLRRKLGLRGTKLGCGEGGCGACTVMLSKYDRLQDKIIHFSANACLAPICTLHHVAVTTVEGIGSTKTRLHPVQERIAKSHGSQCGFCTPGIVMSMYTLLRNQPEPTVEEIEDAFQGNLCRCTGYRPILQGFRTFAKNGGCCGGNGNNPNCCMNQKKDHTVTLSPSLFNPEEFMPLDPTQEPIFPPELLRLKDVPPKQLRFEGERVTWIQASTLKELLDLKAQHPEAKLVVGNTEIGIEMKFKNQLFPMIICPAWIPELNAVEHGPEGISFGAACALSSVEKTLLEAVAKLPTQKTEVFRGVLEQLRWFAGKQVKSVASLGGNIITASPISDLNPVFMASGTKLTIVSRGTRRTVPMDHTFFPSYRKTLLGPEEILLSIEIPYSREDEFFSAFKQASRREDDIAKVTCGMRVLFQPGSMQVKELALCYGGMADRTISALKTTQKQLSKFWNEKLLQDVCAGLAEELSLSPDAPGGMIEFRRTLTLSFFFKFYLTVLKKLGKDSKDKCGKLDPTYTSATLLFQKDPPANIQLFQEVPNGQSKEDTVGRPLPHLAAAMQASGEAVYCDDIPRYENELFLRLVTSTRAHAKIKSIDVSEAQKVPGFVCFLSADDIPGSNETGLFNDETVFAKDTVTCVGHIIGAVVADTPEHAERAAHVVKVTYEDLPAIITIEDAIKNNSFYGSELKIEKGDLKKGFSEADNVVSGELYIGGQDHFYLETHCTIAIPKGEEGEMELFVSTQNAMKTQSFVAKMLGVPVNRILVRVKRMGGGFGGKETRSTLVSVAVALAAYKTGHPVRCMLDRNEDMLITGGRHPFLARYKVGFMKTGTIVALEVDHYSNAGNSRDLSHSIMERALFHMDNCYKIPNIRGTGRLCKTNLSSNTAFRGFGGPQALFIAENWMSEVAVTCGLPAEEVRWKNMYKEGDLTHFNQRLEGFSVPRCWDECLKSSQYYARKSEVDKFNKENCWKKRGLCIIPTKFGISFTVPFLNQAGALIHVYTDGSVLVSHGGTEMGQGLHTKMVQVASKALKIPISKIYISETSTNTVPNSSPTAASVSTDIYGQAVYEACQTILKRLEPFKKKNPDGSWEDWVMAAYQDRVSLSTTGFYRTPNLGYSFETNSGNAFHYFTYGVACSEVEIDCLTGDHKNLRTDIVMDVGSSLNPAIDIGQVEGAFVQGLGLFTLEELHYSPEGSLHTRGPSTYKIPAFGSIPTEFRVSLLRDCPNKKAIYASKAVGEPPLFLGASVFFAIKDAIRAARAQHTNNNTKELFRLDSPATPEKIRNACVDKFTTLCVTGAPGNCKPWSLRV

| IC50 [1] [µM] | IC50 [2] [µM] | SMILES |
| --- | --- | --- |
| 6.5 | 113 | O=C(O)c1c(O)cc(O)cc1O [2,4,6-trihydroxybenzoic acid (M3)] |
| 7 | 198 | O=c1cc(O)cc2oc(-c3ccc(O)cc3)c(OC3OC(CO)C(O)C(O)C3O)cc1-2 [5,7‐dihydroxy‐2‐(4‐hydroxyphenyl)‐3‐ {[(2S,3R,4S,5S,6R)‐3,4,5‐trihydroxy‐6‐ (hydroxymethyl)oxan‐2‐yl]oxy}‐1λ⁴‐chromen‐1‐ylium] |
| 8.7 | 260 | COc1cc(-c2oc3cc(O)cc(=O)c-3cc2OC2OC(CO)C(O)C(O)C2O)ccc1O [5,7‐dihydroxy‐2‐(4‐hydroxy‐3‐methoxyphenyl)‐3‐ {[(2S,3R,4S,5S,6R)‐3,4,5‐trihydroxy‐6‐ (hydroxymethyl)oxan‐2‐yl]oxy}‐1λ⁴‐chromen‐1‐ylium] |
| 7.2 | 221 | O=c1cc(O)cc2oc(-c3ccc(O)c(O)c3)c(OC3OC(CO)C(O)C(O)C3O)cc1-2 (stereo not drawn) [Cyanidin-3-glucoside (M8)] |
| 8.2 | 251 | COc1cc(/C=C/C(=O)O)ccc1O [Ferulic acid (M5)] |
| 8.6 | 246 | CC[C@H]1O[C@@H](Oc2c(-c3ccc(O)c(OC)c3)oc3cc(O)cc(=O)c-3c2O)[C@H](O)[C@@H](O)[C@@H]1O [3‐{[(2S,3R,4S,5S,6R)‐6‐ethyl‐3,4,5‐trihydroxyoxan‐2‐ yl]oxy}‐5,7‐dihydroxy‐2‐(4‐hydroxy‐3‐ methoxyphenyl)‐4H‐chromen‐4‐one] |
| 6.8 | 90.8 | O=C(O)/C=C/c1ccc(O)cc1 [p-Coumaric Acid] |

| SMILES | IC50 [1] [µM] | IC50 [2] [µM] |
| --- | --- | --- |
| COc1cc(C(=O)O)ccc1O [4-hydroxy-3-methoxybenzoic acid] | 8.5 | 205 |
| O=C(O)c1ccc(O)c(O)c1 [Protocatechuic acid (M1)] | 5.8 | 85.1 |
